In PubChem BioAssay AID1963978 (Molecular Pharmacology Branch, DTP, NCI, 2024):

Test system: 616215-338-R-J1-PDC spheroids with HUVEC/MSC, viability
Test: Anticancer human tumor 616215-338-R-J1-PDC patient-derived colon adenocarcinoma cell line growth inhibition [PI3K]
Details: for IC50: curve of first compound; for viability, T/C: stronger effect = lower value
Source text: Combinatorial screen of targeted agents with the PI3K inhibitors inavolisib, alpelisib, duvelisib, and copanlisib in multi-cell type tumor spheroids
A high-throughput screen of multi-cell type tumor spheroids was designed to identify active combinations of targeted small molecules and PI3K pathway inhibitors. Complex spheroids include a stromal component modeled by human endothelial cells (HUVEC) and fibroblasts modeled by human mesenchymal stem cells (MSCs). The concentration ranges selected for each drug and investigational agent were based upon clinically achievable concentrations if the clinical Cmax of the agent was known.
Compounds. The drugs and investigational agents: inavolisib (NSC800729), alpelisib (NSC765974), duvelisib (NSC772469), copanlisib (NSC816437), ipatasertib (NSC767898), afuresertib (NSC778305), talazoparib (NSC767125), sapanisertib (NSC764658), selumetinib (NSC741078), tovorafenib (DAY101, NSC766906), vemurafenib (NSC761431), ravoxertinib (NSC781343), sotorasib (NSC818433), MRTX1133 (NSC 836407), abemaciclib (NSC 768073), palbociclib (NSC758247), venetoclax (NSC 766270), SY5609 (NSC837396), enzalutamide (NSC755605), and darolutamide (NSC825331), were obtained from the National Cancer Institute (NCI) Developmental Therapeutics Program Chemical Repository. The FDA-approved anticancer drug set is available from the NCI Developmental Therapeutics Program. […] The stock solutions were prepared in dimethyl sulfoxide (DMSO, Sigma-Aldrich, St. Louis, MO, cat. D2650) at 800-fold the tested concentration and stored at -70 degrees C prior to their use. All drugs and investigational agents were tested over a range starting from a high concentration at or near the clinical Cmax and decreasing in half-log increments. If the clinical Cmax for an agent had not been determined, the highest concentration tested was 10 microM.
Cell Culture. All cells were maintained in an incubator at 37 degrees C and 5% CO2 with 95% humidity. The PDC lines were cultured according to standard operating procedures established by the NCI PDMR (https://pdmr.cancer.gov/sops/default.htm). All PDCs were thawed and cultured in Matrigel-coated flasks prepared with a working solution of 1X Ham's F-12 nutrient mix, without supplementation (Invitrogen, Waltham, MA, cat. 11765054), 100 U/mL penicillin-streptomycin (Invitrogen, cat. 15140122), and 2.5% Matrigel (Corning Inc., Corning, NY, cat. 354248) for the first three passages. The 354836-022-R-J1-PDC, 475296-252-R-J1-PDC, and 997726-040-R-J2-PDC lines were cultured in 6A media, which includes advanced DMEM/F-12 (Thermo Fisher Scientific, cat. 12634028), 10 mM HEPES (Thermo Fisher Scientific, cat. 15630080), 1X GlutaMAX supplement (Thermo Fisher Scientific, cat. 35050061), 0.1 mg/mL primocin (InvivoGen, San Diego, CA, cat. ant-pm-2), 10% defined fetal bovine serum, heat inactivated (HyClone Laboratories Inc., Logan, UT, cat. SH30070.03HI), 50% L-WRN conditioned media (ATCC, cat. CRL-3276), 1.25 mM N-Acetyl-L-cysteine (Sigma-Aldrich, cat. A9165), 10 mM nicotinamide (Sigma-Aldrich, cat. N0636), 1X B-27 supplement (Thermo Fisher Scientific, cat. 17504044), 1X N-2 supplement (Thermo Fisher Scientific, cat. 17502048), and 10 microM Y-27632 dihydrochloride (Tocris Bioscience, Bristol, United Kingdom, cat. 1254). The 624824-186-R-J2-PDC line was cultured in 6C/Colon 1B media, which includes all 6A media components plus 50 ng/mL human EGF recombinant protein (Thermo Fisher Scientific, cat. PHG0311). […]

[1] = second compound 0.00316 µM, first compound 0.0316 µM
[2] = second compound 0.00316 µM, first compound 0.1 µM
[3] = second compound 0.00316 µM, first compound 0.316 µM
[4] = second compound 0.00316 µM, first compound 1 µM
[5] = second compound 0.00316 µM, first compound 3.16 µM
[6] = second compound 0.00316 µM, first compound 10 µM
[7] = second compound 0.01 µM, first compound 0.0316 µM
[8] = second compound 0.01 µM, first compound 0.1 µM
[9] = second compound 0.01 µM, first compound 0.316 µM
[10] = second compound 0.01 µM, first compound 1 µM
[11] = second compound 0.01 µM, first compound 3.16 µM
[12] = second compound 0.01 µM, first compound 10 µM
[13] = second compound 0.0316 µM, first compound 0.0316 µM
[14] = second compound 0.0316 µM, first compound 0.1 µM
[15] = second compound 0.0316 µM, first compound 0.316 µM
[16] = second compound 0.0316 µM, first compound 1 µM
[17] = second compound 0.0316 µM, first compound 3.16 µM
[18] = second compound 0.0316 µM, first compound 10 µM
[19] = second compound 0.1 µM, first compound 0.0316 µM
[20] = second compound 0.1 µM, first compound 0.1 µM
[21] = second compound 0.1 µM, first compound 0.316 µM
[22] = second compound 0.1 µM, first compound 1 µM
[23] = second compound 0.1 µM, first compound 3.16 µM
[24] = second compound 0.1 µM, first compound 10 µM
[25] = second compound 0.316 µM, first compound 0.0316 µM
[26] = second compound 0.316 µM, first compound 0.1 µM
[27] = second compound 0.316 µM, first compound 0.316 µM
[28] = second compound 0.316 µM, first compound 1 µM
[29] = second compound 0.316 µM, first compound 3.16 µM
[30] = second compound 0.316 µM, first compound 10 µM
[31] = second compound 1 µM, first compound 0.0316 µM
[32] = second compound 1 µM, first compound 0.1 µM
[33] = second compound 1 µM, first compound 0.316 µM
[34] = second compound 1 µM, first compound 1 µM
[35] = second compound 1 µM, first compound 3.16 µM
[36] = second compound 1 µM, first compound 10 µM
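Note: spheroids exposed to agents for seven days before the viability read.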

With `C#Cc1c(F)ccc2cc(O)cc(-c3ncc4c(N5CC6CCC(C5)N6)nc(OCC56CCCN5CC(F)C6)nc4c3F)c12` (centres undefined) + CC(Nc1ccc2c(c1)OCCn1cc(N3C(=O)OCC3C(F)F)nc1-2)C(N)=O the IC50 (second compound 0.00316 µM) was over 10 µM, the IC50 (second compound 0.01 µM) was over 10 µM and the IC50 (second compound 0.0316 µM) was over 10 µM. It also gave an IC50 (second compound 0.1 µM) of over 10 µM, an IC50 (second compound 0.316 µM) of 6.86 µM and an IC50 (second compound 1 µM) of 7.1 µM. It also gave a viability, T/C [1] of 102%, a viability, T/C [2] of 79.6% and a viability, T/C [3] of 111%. For the same molecule, the viability, T/C [4] was 100%, the viability, T/C [5] was 90.5% and the viability, T/C [6] was 74.6%. It also gave a viability, T/C [7] of 90%, a viability, T/C [8] of 94% and a viability, T/C [9] of 102%. The viability, T/C [10] was 95.7%, the viability, T/C [11] was 98.2% and the viability, T/C [12] was 62.2%. The viability, T/C [13] was 96%, the viability, T/C [14] was 95.4% and the viability, T/C [15] was 106%. It also gave a viability, T/C [16] of 99.7%, a viability, T/C [17] of 81.8% and a viability, T/C [18] of 62.6%. It also gave a viability, T/C [19] of 101%, a viability, T/C [20] of 100% and a viability, T/C [21] of 101%. For the same molecule, the viability, T/C [22] was 83.1%, the viability, T/C [23] was 79.7% and the viability, T/C [24] was 52.8%. For the same molecule, the viability, T/C [25] was 100%, the viability, T/C [26] was 96.5% and the viability, T/C [27] was 95.9%. The viability, T/C [28] was 87.2%, the viability, T/C [29] was 71.4% and the viability, T/C [30] was 39.5%. For the same molecule, the viability, T/C [31] was 95.3%, the viability, T/C [32] was 84.2% and the viability, T/C [33] was 90.1%. It also gave a viability, T/C [34] of 86.9%, a viability, T/C [35] of 67.5% and a viability, T/C [36] of 42.6%.
In the case of `C=CC(=O)N1CCN(c2nc(=O)n(-c3c(C)ccnc3C(C)C)c3nc(-c4c(O)cccc4F)c(F)cc23)C(C)C1` (centres undefined) + CC(Nc1ccc2c(c1)OCCn1cc(N3C(=O)OCC3C(F)F)nc1-2)C(N)=O, the IC50 (second compound 0.00316 µM) is reported as over 10 µM, the IC50 (second compound 0.01 µM) is reported as over 10 µM and the IC50 (second compound 0.0316 µM) is reported as over 10 µM. It also gave an IC50 (second compound 0.1 µM) of over 10 µM, an IC50 (second compound 0.316 µM) of over 10 µM and an IC50 (second compound 1 µM) of over 10 µM. The viability, T/C [1] was 95.9%, the viability, T/C [2] was 101% and the viability, T/C [3] was 86.8%. For the same molecule, the viability, T/C [4] was 103%, the viability, T/C [5] was 100% and the viability, T/C [6] was 87.5%. The viability, T/C [7] was 91.8%, the viability, T/C [8] was 100% and the viability, T/C [9] was 84.2%. It also gave a viability, T/C [10] of 98.1%, a viability, T/C [11] of 99.1% and a viability, T/C [12] of 95.6%. It also gave a viability, T/C [13] of 102%, a viability, T/C [14] of 106% and a viability, T/C [15] of 110%. It also gave a viability, T/C [16] of 103%, a viability, T/C [17] of 95.6% and a viability, T/C [18] of 90.9%. The viability, T/C [19] was 89.8%, the viability, T/C [20] was 92.6% and the viability, T/C [21] was 91.1%. For the same molecule, the viability, T/C [22] was 97.3%, the viability, T/C [23] was 98% and the viability, T/C [24] was 84.2%. The viability, T/C [25] was 114%, the viability, T/C [26] was 99.3% and the viability, T/C [27] was 95.7%. The viability, T/C [28] was 100%, the viability, T/C [29] was 97.8% and the viability, T/C [30] was 105%. It also gave a viability, T/C [31] of 101%, a viability, T/C [32] of 96.7% and a viability, T/C [33] of 105%. The viability, T/C [34] was 97.1%, the viability, T/C [35] was 90.6% and the viability, T/C [36] was 81.6%.
